The OligoGym collection
HELM strings list units from the 5' end as sugar, base in round brackets, then linkage (d deoxyribose, r ribose, m 2'-O-methyl, p phosphodiester). Strings are as the collection lists them; they lack the last nucleoside at the 3' end of the tested compound. [moe] = 2'-O-(2-methoxyethyl) (MOE); [sp] = phosphorothioate linkage; [m5C] = 5-methylcytosine

Biological target: ATXN2
Experiment: mouse, dose not given
Settings: ASO

Substance	3 h FOB score
RNA1{[moe](G)[sp].[moe](G)p.[moe](A)p.[moe](T)p.[moe](T)p.d(G)[sp].d(T)[sp].d(T)[sp].d(T)[sp].d(T)[sp].d([m5C])[sp].d(T)[sp].d(T)[sp].d([m5C])[sp].d(A)[sp].[moe](T)p.[moe](T)p.[moe](A)[sp].[moe](T)}$$$$ (last 3' nucleoside missing)	0 score 0-7
RNA1{[moe]([m5C])[sp].[moe]([m5C])p.[moe](T)p.[moe](A)p.[moe](T)p.[moe]([m5C])p.d(A)[sp].d(T)[sp].d([m5C])[sp].d(A)[sp].d(T)[sp].d(T)[sp].d(T)[sp].d(T)[sp].d([m5C])[sp].d([m5C])[sp].[moe](A)p.[moe](G)[sp].[moe](G)}$$$$ (last 3' nucleoside missing)	1.25 score 0-7
RNA1{[moe](G)[sp].[moe](G)p.[moe](T)p.[moe](G)p.[moe](A)p.d(T)[sp].d(G)[sp].d(T)[sp].d(T)[sp].d(T)[sp].d([m5C])[sp].d(A)[sp].d(T)[sp].d(T)[sp].d(G)[sp].[moe](G)p.[moe](G)p.[moe](T)[sp].[moe](T)}$$$$ (last 3' nucleoside missing)	4.5 score 0-7
RNA1{[moe](T)[sp].[moe](G)p.[moe](G)p.[moe](T)p.[moe](G)p.[moe](G)p.d(T)[sp].d(G)[sp].d(T)[sp].d(G)[sp].d([m5C])[sp].d(G)[sp].d([m5C])[sp].d(A)[sp].d(T)[sp].d(G)[sp].[moe](T)p.[moe](A)[sp].[moe](G)}$$$$ (last 3' nucleoside missing)	7 score 0-7
RNA1{[moe](A)[sp].[moe](A)p.[moe](G)p.[moe](T)p.[moe](T)p.d([m5C])[sp].d([m5C])[sp].d([m5C])[sp].d(A)[sp].d(T)[sp].d(T)[sp].d(G)[sp].d([m5C])[sp].d(A)[sp].d(T)[sp].[moe](T)p.[moe](G)p.[moe](T)[sp].[moe](T)}$$$$ (last 3' nucleoside missing)	6 score 0-7
RNA1{[moe]([m5C])[sp].[moe](T)p.[moe](T)p.[moe](A)p.d(G)[sp].d(A)[sp].d(G)[sp].d(T)[sp].d(T)[sp].d(T)[sp].d(T)[sp].d(T)[sp].d(G)[sp].d([m5C])[sp].[moe]([m5C])p.[moe](T)p.[moe](T)p.[moe]([m5C])[sp].[moe]([m5C])}$$$$ (last 3' nucleoside missing)	5.5 score 0-7
RNA1{[moe](G)[sp].[moe](T)p.[moe](G)p.[moe](A)p.[moe](T)p.d(G)[sp].d(T)[sp].d(T)[sp].d(T)[sp].d([m5C])[sp].d(A)[sp].d(T)[sp].d(T)[sp].d(G)[sp].d(G)[sp].[moe](G)p.[moe](T)p.[moe](T)[sp].[moe](T)}$$$$ (last 3' nucleoside missing)	4.5 score 0-7
RNA1{[moe]([m5C])[sp].[moe](G)p.[moe](T)p.[moe](T)p.[moe](T)p.d([m5C])[sp].d([m5C])[sp].d(T)[sp].d(T)[sp].d([m5C])[sp].d(T)[sp].d([m5C])[sp].d([m5C])[sp].d([m5C])[sp].d(T)[sp].[moe](T)p.[moe](T)p.[moe](G)[sp].[moe](A)}$$$$ (last 3' nucleoside missing)	0 score 0-7
RNA1{[moe](G)[sp].[moe]([m5C])p.[moe](A)p.[moe](A)p.[moe]([m5C])p.d(T)[sp].d(T)[sp].d(A)[sp].d(A)[sp].d(T)[sp].d(A)[sp].d(A)[sp].d([m5C])[sp].d([m5C])[sp].d(T)[sp].[moe](T)p.[moe](A)p.[moe](G)[sp].[moe](T)}$$$$ (last 3' nucleoside missing)	0 score 0-7
RNA1{[moe](G)[sp].[moe](G)p.[moe](A)p.[moe](T)p.[moe](T)[sp].d([m5C])[sp].d(T)[sp].d(G)[sp].d(T)[sp].d(A)[sp].d([m5C])[sp].d(T)[sp].d(T)[sp].[moe](T)p.[moe](T)p.[moe]([m5C])[sp].[moe](T)}$$$$ (last 3' nucleoside missing)	2.5 score 0-7
RNA1{[moe](T)[sp].[moe](A)p.[moe](G)p.[moe]([m5C])p.[moe](A)p.d([m5C])[sp].d(T)[sp].d(T)[sp].d(G)[sp].d(G)[sp].d(T)[sp].d(T)[sp].d([m5C])[sp].d(A)[sp].d(A)[sp].[moe](T)p.[moe](T)p.[moe](T)[sp].[moe](T)}$$$$ (last 3' nucleoside missing)	6 score 0-7
RNA1{[moe]([m5C])[sp].[moe](G)p.[moe](T)p.[moe](A)p.[moe](T)p.[moe](G)p.d(T)[sp].d(T)[sp].d(T)[sp].d(G)[sp].d(T)[sp].d([m5C])[sp].d(T)[sp].d(G)[sp].d(T)[sp].d([m5C])[sp].[moe](T)p.[moe](T)[sp].[moe](A)}$$$$ (last 3' nucleoside missing)	6.75 score 0-7
RNA1{[moe]([m5C])[sp].[moe](T)p.[moe](G)p.[moe](G)p.[moe](A)[sp].d(T)[sp].d(T)[sp].d([m5C])[sp].d(T)[sp].d(G)[sp].d(T)[sp].d(A)[sp].d([m5C])[sp].[moe](T)p.[moe](T)p.[moe](T)[sp].[moe](T)}$$$$ (last 3' nucleoside missing)	3.75 score 0-7
RNA1{[moe]([m5C])[sp].[moe](G)p.[moe](T)p.[moe](A)p.[moe](T)p.d(G)[sp].d(T)[sp].d(T)[sp].d(T)[sp].d(G)[sp].d(T)[sp].d([m5C])[sp].d(T)[sp].d(G)[sp].d(T)[sp].[moe]([m5C])p.[moe](T)p.[moe](T)[sp].[moe](A)}$$$$ (last 3' nucleoside missing)	6.25 score 0-7
RNA1{[moe](T)[sp].[moe](A)p.[moe](A)p.[moe](T)p.[moe](A)p.d(T)[sp].d(T)[sp].d([m5C])[sp].d([m5C])[sp].d(A)[sp].d(T)[sp].d(A)[sp].d([m5C])[sp].d(A)[sp].d(G)[sp].[moe](A)p.[moe](T)p.[moe]([m5C])[sp].[moe](G)}$$$$ (last 3' nucleoside missing)	0 score 0-7
RNA1{[moe]([m5C])[sp].[moe](T)p.[moe](G)p.[moe]([m5C])p.d(T)[sp].d(A)[sp].d(A)[sp].d([m5C])[sp].d(T)[sp].d(G)[sp].d(G)[sp].d(T)[sp].d(T)[sp].d(T)[sp].[moe](G)p.[moe]([m5C])p.[moe]([m5C])p.[moe]([m5C])[sp].[moe](T)}$$$$ (last 3' nucleoside missing)	1 score 0-7
RNA1{[moe](G)[sp].[moe](T)p.[moe](G)p.[moe](T)p.[moe](T)p.d([m5C])[sp].d(A)[sp].d(T)[sp].d(G)[sp].d(A)[sp].d([m5C])[sp].d(T)[sp].d(T)[sp].d(T)[sp].d([m5C])[sp].[moe](A)p.[moe](A)p.[moe](G)[sp].[moe](G)}$$$$ (last 3' nucleoside missing)	3.5 score 0-7
RNA1{[moe]([m5C])[sp].[moe](G)p.[moe](T)p.[moe](A)p.d(T)[sp].d(G)[sp].d(T)[sp].d(T)[sp].d(T)[sp].d(G)[sp].d(T)[sp].d([m5C])[sp].d(T)[sp].d(G)[sp].[moe](T)p.[moe]([m5C])p.[moe](T)p.[moe](T)[sp].[moe](A)}$$$$ (last 3' nucleoside missing)	4 score 0-7
RNA1{[moe](T)[sp].[moe](T)p.[moe]([m5C])p.[moe](T)p.[moe](G)p.d([m5C])[sp].d(T)[sp].d(A)[sp].d(A)[sp].d([m5C])[sp].d(T)[sp].d(G)[sp].d(G)[sp].d(T)[sp].d(T)[sp].[moe](T)p.[moe](G)p.[moe]([m5C])[sp].[moe]([m5C])}$$$$ (last 3' nucleoside missing)	2 score 0-7
RNA1{[moe](G)[sp].[moe](A)p.[moe](T)p.[moe](G)p.[moe](T)p.d(T)[sp].d(T)[sp].d([m5C])[sp].d(A)[sp].d(T)[sp].d(T)[sp].d(G)[sp].d(G)[sp].d(G)[sp].d(T)[sp].[moe](T)p.[moe](T)p.[moe](A)[sp].[moe](A)}$$$$ (last 3' nucleoside missing)	6.25 score 0-7
RNA1{[moe](A)[sp].[moe](A)p.[moe](G)p.[moe](A)p.[moe]([m5C])p.d(T)[sp].d(T)[sp].d(T)[sp].d(T)[sp].d(T)[sp].d(A)[sp].d(T)[sp].d(G)[sp].d(T)[sp].d(T)[sp].[moe](G)p.[moe]([m5C])p.[moe](T)[sp].[moe]([m5C])}$$$$ (last 3' nucleoside missing)	3.5 score 0-7
RNA1{[moe](G)[sp].[moe](T)p.[moe](G)p.[moe](T)p.[moe](T)p.d([m5C])[sp].d(A)[sp].d(G)[sp].d(T)[sp].d(A)[sp].d(T)[sp].d(A)[sp].d(G)[sp].d(A)[sp].d(T)[sp].[moe](T)p.[moe](A)p.[moe](T)[sp].[moe]([m5C])}$$$$ (last 3' nucleoside missing)	3.75 score 0-7
RNA1{[moe](T)[sp].[moe](T)p.[moe](A)p.[moe]([m5C])p.[moe](T)p.d(T)[sp].d([m5C])[sp].d(T)[sp].d(T)[sp].d(T)[sp].d(T)[sp].d(G)[sp].d([m5C])[sp].d(T)[sp].d(A)[sp].[moe](G)p.[moe]([m5C])p.[moe](T)[sp].[moe](G)}$$$$ (last 3' nucleoside missing)	1 score 0-7
RNA1{[moe](A)[sp].[moe](G)p.[moe](G)p.[moe](T)p.[moe](G)p.d(A)[sp].d(T)[sp].d(G)[sp].d(T)[sp].d(T)[sp].d(T)[sp].d([m5C])[sp].d(A)[sp].d(T)[sp].d(T)[sp].[moe](G)p.[moe](G)p.[moe](G)[sp].[moe](T)}$$$$ (last 3' nucleoside missing)	4.5 score 0-7
RNA1{[moe](T)[sp].[moe]([m5C])p.[moe](A)p.[moe](T)p.[moe](G)p.d(G)[sp].d([m5C])[sp].d(T)[sp].d([m5C])[sp].d([m5C])[sp].d(A)[sp].d(A)[sp].d(T)[sp].d(A)[sp].d(T)[sp].[moe]([m5C])p.[moe](G)p.[moe](G)[sp].[moe]([m5C])}$$$$ (last 3' nucleoside missing)	2.25 score 0-7
RNA1{[moe](T)[sp].[moe](G)p.[moe](T)p.[moe](T)p.[moe]([m5C])p.d(T)[sp].d(T)[sp].d([m5C])[sp].d([m5C])[sp].d(A)[sp].d(A)[sp].d(T)[sp].d(T)[sp].d(T)[sp].d([m5C])[sp].[moe](A)p.[moe](G)p.[moe](A)[sp].[moe]([m5C])}$$$$ (last 3' nucleoside missing)	0 score 0-7
RNA1{[moe](A)[sp].[moe](G)p.[moe]([m5C])p.[moe](T)p.[moe](T)p.d(A)[sp].d(G)[sp].d(A)[sp].d(G)[sp].d(T)[sp].d(T)[sp].d(T)[sp].d(T)[sp].d(T)[sp].d(G)[sp].[moe]([m5C])p.[moe]([m5C])p.[moe](T)[sp].[moe](T)}$$$$ (last 3' nucleoside missing)	5 score 0-7
